From US20130202698A1 (NANJING SANHOME PHARMACEUTICAL CO., LTD., priority 2005, published 2013)
Read-outs that look alike come from different tables or passages of the source. Marks after values point to notes of the source that are not given here.

Legend:
[1] = Phase II clinical trial, intravenous, adverse events; format: in vivo, human; conditions: human, in vivo, iv
Description: A double-blinded randomized controlled trial was carried out to compare the adverse events between the I.V. levo-ornidazole and racemate treatment groups. […] The high rate of adverse events observed from the treatment by the racemic drug caused patient treatment non-compliant, which could be dangerous for life-threatening infections.

[2] = tested on: isoniazid-induced convulsion; assay: Anticonvulsant effects on isoniazid-induced convulsion in mice; format: in vivo; conditions: Mean ± SD, n=10
Description: Mice are randomized into 4 treatment groups (n=10 with half male and half female): dextro- or levo-ornidazole (dosage 40, 80, 160 mg/kg), vehicle control group (15% propylene glycol in 0.9% sodium chloride, 20 mL/kg) and the positive control group. Animals are treated with known convulsion-inducing agents, followed by the drug or vehicle control given intravenously. The dose volume is 20 mL/kg with an infusion rate of 0.2 mL/10 seconds. The anticonvulsant effects are observed and recorded (see Tables 2-6).

[3] = tested on: motor balance and coordination; conditions: both, mouse, in vivo
Description: Motor balance and coordination were tested using a modified beam walking method. Mice were put on a smooth beam tilted at an angle of 70 degree. Mice passed the test by standing on the beam for 0.5 minute without falling off. All the mice were pre-screened before the studies, and a total of 110 mice were selected by passing the beam test in 3 consecutive tries. The selected mice were divided into 11 groups with 10 mice in each group (half male and half female). At certain time points after drug administration, mice were tested on the beam for 3 consecutive times. A mouse was counted as failing to the test if it fell off the beam for 2 or more times.
The dose volume was 0.2 mL/10 gram and infusion rate was 0.2 mL/10 seconds. Chlorpromazine was used as the positive control.

[4] = Phase II clinical trial, oral tablets, departments of obstetrics/gynecology, adverse events; format: in vivo, human; conditions: human, in vivo, po
Description: (§1) Double-blinded randomized controlled trials were carried out to compare the adverse events of oral levo-ornidazole with racemate treatment groups. Two separate studies were conducted for patients with infections from either department of stomatology or obstetrics/gynecology.

[5] = Phase II clinical trial, oral tablets, departments of stomatology, adverse events; format: in vivo, human; conditions: human, in vivo, po
Description: as §1

[6] = rat, in vivo
Purkinje cells = conditions: dog, in vivo, 200 mg/kg
Description: Male and female Beagle dogs were kept in laboratory conditions for 1 week to observe general health conditions. […] Animals were treated at dose of I.V. 200 mg/kg for ornidazole enantiomers, or 10 mL/kg for vehicle control for 2 weeks, then sacrificed for anatomical and pathological examinations.
Quantitative data were analyzed by group test and qualitative data by simplified direct probability method. A 10×10 area under low magnification was used to count cerebellar Purkinje cells.

SMILES: Cc1ncc([N+](=O)[O-])n1C[C@H](O)CCl [L-ornidazole, S-(−)-ornidazole]
- Adverse events reported (total) [1]: 3
- Appetite drop, # of Patients with AE [1]: 1
- Appetite drop, Incidence (%) [1]: 0.74%
- Dizziness, # of Patients with AE [1]: 0
- Dizziness, Incidence (%) [1]: 0.00%
- Dry mouth, # of Patients with AE [1]: 0
- Dry mouth, Incidence (%) [1]: 0.00%
- Headache, # of Patients with AE [1]: 0
- Headache, Incidence (%) [1]: 0.00%
- Hypersomnia, # of Patients with AE [1]: 0
- Hypersomnia, Incidence (%) [1]: 0.00%
- Hypodynamia, # of Patients with AE [1]: 0
- Hypodynamia, Incidence (%) [1]: 0.00%
- Nausea, # of Patients with AE [1]: 0
- Nausea, Incidence (%) [1]: 0.00%
- Patients with adverse events (total) [1]: 2 patients
- Stomach discomfort, # of Patients with AE [1]: 0
- Stomach discomfort, Incidence (%) [1]: 0.00%
- Total incidence rate of adverse events [1]: 1.47%
- Vertigo, # of Patients with AE [1]: 0
- Vertigo, Incidence (%) [1]: 0.00%
- Vomiting, # of Patients with AE [1]: 0
- Vomiting, Incidence (%) [1]: 0.00%
- WBC decline, # of Patients with AE [1]: 2
- WBC decline, Incidence (%) [1]: 1.47%
- Convulsion Latency ([2]; 40 mg/kg i.v.): 37.1 ± 5.8 min
- Time to Death ([2]; 40 mg/kg i.v.): 47.6 ± 5.6 min
- Convulsion Latency ([2]; 80 mg/kg i.v.): 38.3 ± 6.3 min
- Time to Death ([2]; 80 mg/kg i.v.): 48.3 ± 9.6 min
- Convulsion Latency ([2]; 160 mg/kg i.v.): 45.0 ± 7.8 min
- Time to Death ([2]; 160 mg/kg i.v.): 75.2 ± 19.0 min
- Number of Animals Fall Off ([3]; 40 mg/kg, 0.5 h): 0
- Number of Animals Fall Off ([3]; 40 mg/kg, 1 h): 1
- Number of Animals Fall Off ([3]; 40 mg/kg, 2 h): 0
- Number of Animals Fall Off ([3]; 40 mg/kg, 3 h): 0
- Number of Animals Fall Off ([3]; 40 mg/kg, 4 h): 0
- Number of Animals Fall Off ([3]; 80 mg/kg, 0.5 h): 0
- Number of Animals Fall Off ([3]; 80 mg/kg, 1 h): 0
- Number of Animals Fall Off ([3]; 80 mg/kg, 2 h): 0
- Number of Animals Fall Off ([3]; 80 mg/kg, 3 h): 1
- Number of Animals Fall Off ([3]; 80 mg/kg, 4 h): 1
- Number of Animals Fall Off ([3]; 160 mg/kg, 0.5 h): 0
- Number of Animals Fall Off ([3]; 160 mg/kg, 1 h): 0
- Number of Animals Fall Off ([3]; 160 mg/kg, 2 h): 3
- Number of Animals Fall Off ([3]; 160 mg/kg, 3 h): 2
- Number of Animals Fall Off ([3]; 160 mg/kg, 4 h): 1
- Abdominal pain, # of Patients with AE [4]: 0
- Abdominal pain, Incidence (%) [4]: 0.00%
- Appetite drop, # of Patients with AE [4]: 0
- Appetite drop, Incidence (%) [4]: 0.00%
- Bitter taste, # of Patients with AE [4]: 0
- Bitter taste, Incidence (%) [4]: 0.00%
- Bloating, # of Patients with AE [4]: 0
- Bloating, Incidence (%) [4]: 0.00%
- Blurred vision, # of Patients with AE [4]: 0
- Blurred vision, Incidence (%) [4]: 0.00%
- Breast tenderness, # of Patients with AE [4]: 0
- Breast tenderness, Incidence (%) [4]: 0.00%
- Chest tightness, # of Patients with AE [4]: 0
- Chest tightness, Incidence (%) [4]: 0.00%
- Dazzle, # of Patients with AE [4]: 0
- Dazzle, Incidence (%) [4]: 0.00%
- Diarrhea, # of Patients with AE [4]: 0
- Diarrhea, Incidence (%) [4]: 0.00%
- Dizziness, # of Patients with AE [4]: 0
- Dizziness, Incidence (%) [4]: 0.00%
- Dry mouth, # of Patients with AE [4]: 0
- Dry mouth, Incidence (%) [4]: 0.00%
- Headache, # of Patients with AE [4]: 0
- Headache, Incidence (%) [4]: 0.00%
- Hypersomnia, # of Patients with AE [4]: 0
- Hypersomnia, Incidence (%) [4]: 0.00^## %
- Hypodynamia, # of Patients with AE [4]: 0
- Hypodynamia, Incidence (%) [4]: 0.00%
- Nausea, # of Patients with AE [4]: 1
- Nausea, Incidence (%) [4]: 0.70^# %
- Oral malodor, # of Patients with AE [4]: 1
- Oral malodor, Incidence (%) [4]: 0.70%
- Patients with adverse events (total) [4]: 5 patients
- Rash, # of Patients with AE [4]: 1
- Rash, Incidence (%) [4]: 0.70%
- Stomach ache, # of Patients with AE [4]: 1
- Stomach ache, Incidence (%) [4]: 0.70%
- Stomach discomfort, # of Patients with AE [4]: 1
- Stomach discomfort, Incidence (%) [4]: 0.70%
- Total incidence rate of adverse events [4]: 3.50%
- Vertigo, # of Patients with AE [4]: 0
- Vertigo, Incidence (%) [4]: 0.00^## %
- Vomiting, # of Patients with AE [4]: 0
- Vomiting, Incidence (%) [4]: 0.00%
- Plasma protein binding, levo- vs dextro-ornidazole (plasma protein): Similar
- Bloating, # of Patients with AE [5]: 0
- Bloating, Incidence (%) [5]: 0.00%
- Constipation, # of Patients with AE [5]: 1
- Constipation, Incidence (%) [5]: 0.72%
- Drowsy, # of Patients with AE [5]: 0
- Drowsy, Incidence (%) [5]: 0.00%
- Dry mouth, # of Patients with AE [5]: 0
- Dry mouth, Incidence (%) [5]: 0.00%
- Headache, # of Patients with AE [5]: 0
- Headache, Incidence (%) [5]: 0.00%
- Hypersomnia, # of Patients with AE [5]: 0
- Hypersomnia, Incidence (%) [5]: 0.00^# %
- Hypodynamia, # of Patients with AE [5]: 0
- Hypodynamia, Incidence (%) [5]: 0.00%
- Loss of appetite, # of Patients with AE [5]: 0
- Loss of appetite, Incidence (%) [5]: 0.00%
- Nausea, # of Patients with AE [5]: 4
- Nausea, Incidence (%) [5]: 2.88%
- Palpitation, # of Patients with AE [5]: 0
- Palpitation, Incidence (%) [5]: 0.00%
- Patients with adverse events (total) [5]: 5 patients
- Pruritus, # of Patients with AE [5]: 0
- Pruritus, Incidence (%) [5]: 0.00%
- Rash, # of Patients with AE [5]: 0
- Rash, Incidence (%) [5]: 0.00%
- Sourregurgitation, # of Patients with AE [5]: 0
- Sourregurgitation, Incidence (%) [5]: 0.00%
- Stomach discomfort, # of Patients with AE [5]: 0
- Stomach discomfort, Incidence (%) [5]: 0.00^# %
- Stupor, # of Patients with AE [5]: 0
- Stupor, Incidence (%) [5]: 0.00%
- Total incidence rate of adverse events [5]: 3.60%
- Vertigo, # of Patients with AE [5]: 0
- Vertigo, Incidence (%) [5]: 0.00%
- Vomiting, # of Patients with AE [5]: 0
- Vomiting, Incidence (%) [5]: 0.00%
- Distribution in different region of brain, levo- vs dextro-ornidazole [6]: Similar
- Purkinje cell morphology (Purkinje cells): did not cause significant change
